Assay results taken from ChEMBL document CHEMBL3112489 (Bioorg Med Chem Lett, 2014).

Assays:
[1] = Inhibition of Legionella pneumophila carbonic anhydrase 2 preincubated for 15 mins by stopped-flow CO2 hydrase assay
[2] = Inhibition of Legionella pneumophila carbonic anhydrase 1 preincubated for 15 mins by stopped-flow CO2 hydrase assay

Compound	Ki [1]	Ki [2]
CC(=O)Nc1nnc(S(N)(=O)=O)s1 [ACETAZOLAMIDE]	0.036 µM	0.095 µM
CCN(CC)C(=S)S [DITIOCARB SODIUM]	2 µM	6 µM
O=[As](O)(O)c1ccccc1 [PHENYLARSONIC ACID]	8 µM	84 µM
OB(O)c1ccccc1 [PHENYLBORONIC ACID]	6 µM	65 µM
[N-]=[N+]=[N-] [SODIUM AZIDE]	450 µM	77 µM
O=C([O-])O.[Na+] [SODIUM BICARBONATE]	6600 µM	3500 µM
O=S([O-])O.[Na+] [SODIUM BISULFITE]	7200 µM	6600 µM
[Br-].[Na+] [SODIUM BROMIDE]	8000 µM	650 µM
O=C([O-])[O-].[Na+].[Na+] [SODIUM CARBONATE]	4800 µM	4700 µM
S=C(S)S [SODIUM CARBONOTRITHIOATE]	620 µM	530 µM
[Cl-].[Na+] [SODIUM CHLORIDE]	810 µM	790 µM
N#CO [SODIUM CYANATE]	960 µM	660 µM
[F-].[Na+] [SODIUM FLUORIDE]	770 µM	910 µM
S [SODIUM HYDROSULFIDE]	510 µM	76 µM
O=S(=O)(O)NS(=O)(=O)O [SODIUM IMINODISULFONATE]	590 µM	1170 µM
[I-].[Na+] [SODIUM IODIDE]	59100 µM	320 µM
N=C=[Se] [SODIUM ISOSELENOCYANATE]	660 µM	980 µM
N=C=S [SODIUM ISOTHIOCYANATE]	880 µM	520 µM
O=[N+]([O-])[O-].[Na+] [SODIUM NITRATE]	30100 µM	7600 µM
O=NO [SODIUM NITRITE]	5800 µM	7900 µM
[O-][Cl+3]([O-])([O-])O [SODIUM PERCHLORATE]	> 200000 µM	> 200000 µM
O=S(=O)(O)OOS(=O)(=O)O [SODIUM PERSULFATE]	570 µM	850 µM
O=P(O)(O)OP(=O)(O)O [SODIUM PYROPHOSPHATE]	830 µM	940 µM
O=[Se](=O)(O)O [SODIUM SELENATE]	660 µM	7300 µM
O=S(=O)([O-])[O-].[Na+].[Na+] [SODIUM SULFATE ANHYDROUS]	96500 µM	77900 µM
O=[Te](=O)(O)O [SODIUM TELLURATE]	290 µM	240 µM
O=BOB(O)OB(O)OB=O [SODIUM TETRABORATE]	550 µM	600 µM
F[B-](F)(F)F.[Na+] [SODIUM TETRAFLUOROBORATE]	> 200000 µM	> 200000 µM
NS(=O)(=O)O [SULFAMATE]	13 µM	76 µM
NS(N)(=O)=O [SULFAMIDE]		94 µM
